Source: PubChem BioAssay AID743163 (Broad Institute, 2013)
The source made the active and inactive calls. How the calls were made is not given here.

System: Mycobacterium tuberculosis starved, CFU count by imaging
Test: Starved Mycobacterium tuberculosis, CFU count by imaging, inhibitor dose, dry powder (AID 743163)
Conditions: stronger effect = lower value

## CSc1nsc(SCc2ccc(C(=O)Nc3cccc(C)c3)cc2)n1
CFU at 64 uM, at 64 µM
  CFU: 12600 CFU
At 10 µM
  CFU: 1.1e+06 CFU

## CCC(C)n1nnc2c(=O)oc3ccccc3c21 (stereo not drawn)
CFU at 64 uM, at 64 µM
  CFU: 3.22e+06 CFU
At 10 µM
  CFU: 4.71e+06 CFU

## Cn1c(NC(=O)c2ccccc2)nc2ccccc21
CFU at 64 uM, at 64 µM
  CFU: 0 CFU
At 10 µM
  CFU: 0 CFU

## c1ccc(-c2n[nH]c(-c3ccccn3)n2)nc1
CFU at 64 uM, at 64 µM
  CFU: 1.91e+06 CFU
At 10 µM
  CFU: 6.09e+06 CFU

## COc1ccc(CCNc2cc(-c3ccccc3)nc3ncnn23)cc1
CFU at 64 uM, at 64 µM
  CFU: 2.5e+06 CFU
At 10 µM
  CFU: 2.65e+06 CFU

## CCOc1ccc(OC(=O)c2ccc3c(=O)n4c(nc3c2)CCC4)cc1
CFU at 64 uM, at 64 µM
  CFU: 3.25e+07 CFU
At 10 µM
  CFU: 3.2e+07 CFU (inactive)

## COc1ccc(CNC(=O)Nc2ncc([N+](=O)[O-])s2)cc1
CFU at 64 uM, at 64 µM
  CFU: 204000 CFU
At 10 µM
  CFU: 2.15e+06 CFU

## CCOC(=O)c1cc(COc2c(Cl)cccc2Cl)on1
CFU at 64 uM, at 64 µM
  CFU: 1.11e+06 CFU
At 10 µM
  CFU: 3.08e+07 CFU

## COC(=O)C(C)Oc1ccc2cc(-c3ccccc3)c(=O)oc2c1 (stereo not drawn)
CFU at 64 uM, at 64 µM
  CFU: 4.57e+06 CFU
At 10 µM
  CFU: 3.2e+07 CFU (inactive)
